Key:
CH1 = assay: Compound was evaluated for cytotoxicity against CH1 cell line; format: functional, cell-based; conditions: Homo sapiens
A2780 = assay: Compound was evaluated for cytotoxicity against A2780 cell line; format: functional, cell-based; conditions: Homo sapiens

SMILES | IC50 (CH1) [nM] | IC50 (A2780) [nM]
COc1ccc(-c2ccc3c(c2)C(=O)N2CCC[C@H]2C=N3)cc1 | 1350 | 560
Cc1ccc(-c2ccc3c(c2)C(=O)N2CCC[C@H]2C=N3)cc1 | 1500 | 580
O=C1c2cc(-c3ccccc3)ccc2N=C[C@@H]2CCCN12 | 1500 | 1150
O=C1c2cc(-c3cccc([N+](=O)[O-])c3)ccc2N=C[C@@H]2CCCN12 | 22500 | 34500
COc1ccccc1-c1ccc2c(c1)C(=O)N1CCC[C@H]1C=N2 | 4800 | 1180
O=C1c2cc(-c3ccc(F)cc3)ccc2N=C[C@@H]2CCCN12 | 4700 | 660

— ChEMBL document CHEMBL1130651, “Synthesis of novel C7-aryl substituted pyrrolo[2,1-c][1,4]benzodiazepines (PBDs) via pro-N10-Troc protection and Suzuki coupling” (Bioorg Med Chem Lett, 1998)
